In ChEMBL document CHEMBL1201862, “PubChem BioAssay data set” (2004):
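Tested at 5 concentrations; 48 h exposure; 96-well plates; endpoints linearly interpolated, else capped at highest concentration. GI50 is the concentration that inhibits growth by half.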 Active and inactive are the calls of the source. Rule as the data show it: active = GI50 up to about 1.1 µM and inactive = higher.

Assays:
Experiment in all cases: DTP human tumour cell line panel, 48 h
NCI-H460 = system: NCI-H460
786-0 = system: 786-0
RXF 393 = system: RXF 393
IGROV-1 = system: IGROV-1
A549 = system: A549
HL-60 = system: HL-60
SK-MEL-5 = system: SK-MEL-5
CCRF-CEM = system: CCRF-CEM
MOLT-4 = system: MOLT-4
SR = system: SR
HCT-116 = system: HCT-116
OVCAR-3 = system: OVCAR-3
SF-295 = system: SF-295
MCF7 = system: MCF7
SN12C = system: SN12C
RPMI-8226 = system: RPMI-8226
HOP-62 = system: HOP-62
UACC-257 = system: UACC-257
UO-31 = system: UO-31
HOP-92 = system: HOP-92

Row | SMILES | GI50 (NCI-H460) | GI50 (786-0) | GI50 (RXF 393) | GI50 (IGROV-1) | GI50 (A549) | GI50 (HL-60) | GI50 (SK-MEL-5) | GI50 (CCRF-CEM) | GI50 (MOLT-4) | GI50 (SR) | GI50 (HCT-116) | GI50 (OVCAR-3) | GI50 (SF-295) | GI50 (MCF7) | GI50 (SN12C) | GI50 (RPMI-8226) | GI50 (HOP-62) | GI50 (UACC-257) | GI50 (UO-31) | GI50 (HOP-92)
1 | COc1cc2c(c(OC)c1OC)-c1ccc(SC)cc1C(=O)CC2 | < 0.01 µM (active) | < 0.01 µM (active) | 66.8 µM (inactive) | < 0.01 µM (active) | < 0.01 µM (active) | < 0.01 µM (active) | < 0.01 µM (active) | < 0.01 µM (active) | < 0.01 µM (active) | < 0.0213 µM (active) | < 0.01 µM (active) | < 0.01 µM (active) | < 0.01 µM (active) | < 0.01 µM (active) | < 0.0421 µM (active) | < 0.01 µM (active) | – | – | – | –
2 | CN(Cc1cccc2ccccc12)Cc1cccc2ccccc12 | 40.6 µM (inactive) | 37.8 µM (inactive) | 47.1 µM (inactive) | 32.2 µM (inactive) | 34 µM (inactive) | 13.4 µM (inactive) | 18.5 µM (inactive) | 16.6 µM (inactive) | 15.3 µM (inactive) | 30.8 µM (inactive) | 13.4 µM (inactive) | 44.4 µM (inactive) | 26.7 µM (inactive) | 20.7 µM (inactive) | 36.6 µM (inactive) | 22.6 µM (inactive) | 45.6 µM (inactive) | 50.1 µM (inactive) | 36.6 µM (inactive) | –
3 | Nc1nc(N)c2c(Cl)c(CNc3ccc(C(=O)NC(CC(=O)O)C(=O)O)cc3)ccc2n1 (centres undefined) | < 0.01 µM (active) | < 0.01 µM (active) | – | < 0.01 µM (active) | < 0.01 µM (active) | < 0.01 µM (active) | < 0.01 µM (active) | < 0.01 µM (active) | < 0.01 µM (active) | < 0.01 µM (active) | 10.7 µM (inactive) | – | < 0.01 µM (active) | < 0.01 µM (active) | < 0.01 µM (active) | < 0.01 µM (active) | < 0.027 µM (active) | – | < 0.01 µM (active) | 0.043 µM (active)
4 | CCOc1cc(NC(C)=O)ccc1C(=O)NN1C(=O)/C(=C/c2cc(OC)c(OC)c(OC)c2)N=C1c1ccccc1 | 91.6 µM (inactive) | > 100 µM (inactive) | – | > 100 µM (inactive) | > 100 µM (inactive) | > 100 µM (inactive) | 65.8 µM (inactive) | > 100 µM (inactive) | > 100 µM (inactive) | > 100 µM (inactive) | > 100 µM (inactive) | > 100 µM (inactive) | > 100 µM (inactive) | > 100 µM (inactive) | > 100 µM (inactive) | – | – | > 100 µM (inactive) | > 100 µM (inactive) | 23 µM (inactive)
5 | CN(C)CCNc1c2ccccc2c2c3c(cccc13)C(=O)N(CCN(C)C)C2=O | 0.0448 µM (active) | – | 0.0232 µM (active) | 0.0968 µM (active) | 0.193 µM (active) | 0.229 µM (active) | 0.697 µM (active) | 0.111 µM (active) | 0.0625 µM (active) | – | 0.0254 µM (active) | 0.112 µM (active) | 0.069 µM (active) | 0.0416 µM (active) | 0.0883 µM (active) | 0.288 µM (active) | 1.67 µM (inactive) | 0.49 µM (active) | 1.61 µM (inactive) | 0.138 µM (active)
6 | CC1NC(=O)CC(c2ccccc2)N(N=O)C1c1ccccc1 (centres undefined) | 25.8 µM (inactive) | – | 22.4 µM (inactive) | 42.1 µM (inactive) | 53.2 µM (inactive) | 24.8 µM (inactive) | 28.6 µM (inactive) | 23.8 µM (inactive) | 31.4 µM (inactive) | – | 37.1 µM (inactive) | 33.2 µM (inactive) | 30.7 µM (inactive) | 44.3 µM (inactive) | 49.5 µM (inactive) | 26.5 µM (inactive) | 28.8 µM (inactive) | 55.6 µM (inactive) | 50.8 µM (inactive) | 16.9 µM (inactive)
7 | N#Cc1ccccc1NC(=O)C(=O)c1c(O)c2ccccc2oc1=O | > 100 µM (inactive) | > 100 µM (inactive) | > 100 µM (inactive) | > 100 µM (inactive) | > 100 µM (inactive) | > 100 µM (inactive) | > 100 µM (inactive) | > 100 µM (inactive) | – | – | > 100 µM (inactive) | > 100 µM (inactive) | > 100 µM (inactive) | > 100 µM (inactive) | > 100 µM (inactive) | > 100 µM (inactive) | > 100 µM (inactive) | > 100 µM (inactive) | > 100 µM (inactive) | > 100 µM (inactive)
8 | COc1ccc(C2SCC(=O)N2NC(=O)c2ccc(NC(C)=O)cc2)c(OC)c1 (centres undefined) | > 100 µM (inactive) | > 100 µM (inactive) | > 100 µM (inactive) | > 100 µM (inactive) | > 100 µM (inactive) | > 100 µM (inactive) | > 100 µM (inactive) | – | > 100 µM (inactive) | – | > 100 µM (inactive) | > 100 µM (inactive) | > 100 µM (inactive) | > 100 µM (inactive) | > 100 µM (inactive) | > 100 µM (inactive) | > 100 µM (inactive) | > 100 µM (inactive) | > 100 µM (inactive) | > 100 µM (inactive)
9 | ClCCCN(CCCCl)c1ccc(/C=N/c2cccc(Cl)c2)cc1 | 9.55 µM (inactive) | 18.3 µM (inactive) | 14.2 µM (inactive) | 29.8 µM (inactive) | 10.2 µM (inactive) | 12.6 µM (inactive) | – | 16.4 µM (inactive) | 14.4 µM (inactive) | – | 32.5 µM (inactive) | 19.1 µM (inactive) | 15 µM (inactive) | 23.5 µM (inactive) | 10.4 µM (inactive) | 17.2 µM (inactive) | 18.7 µM (inactive) | 29.4 µM (inactive) | 15.8 µM (inactive) | 29.2 µM (inactive)
10 | CN(C)CCNC(=O)c1cccc2c(NCC(=O)O)c3ccccc3nc12 | – | 6.87 µM (inactive) | – | 8.51 µM (inactive) | 7.85 µM (inactive) | > 100 µM (inactive) | 10.6 µM (inactive) | 36 µM (inactive) | 4.08 µM (inactive) | 1.36 µM (inactive) | 4.67 µM (inactive) | 19.9 µM (inactive) | 10.9 µM (inactive) | 3.79 µM (inactive) | 9.98 µM (inactive) | 16.5 µM (inactive) | 11.6 µM (inactive) | – | 7.4 µM (inactive) | 8.04 µM (inactive)
11 | CC1=CC(=O)/C(=C/NC(=S)c2ccncc2)C(=O)O1 | > 100 µM (inactive) | > 100 µM (inactive) | > 100 µM (inactive) | 38.7 µM (inactive) | > 100 µM (inactive) | > 100 µM (inactive) | > 100 µM (inactive) | > 100 µM (inactive) | > 100 µM (inactive) | > 100 µM (inactive) | > 100 µM (inactive) | > 100 µM (inactive) | > 100 µM (inactive) | > 100 µM (inactive) | > 100 µM (inactive) | – | > 100 µM (inactive) | > 100 µM (inactive) | > 100 µM (inactive) | > 100 µM (inactive)
12 | Cc1cc(S(=O)(=O)[N-]/C(=N/S(=O)(=O)c2ccc(Cl)cc2)[n+]2ccc(N(C)C)cc2)c(S)cc1Cl | 48.3 µM (inactive) | > 100 µM (inactive) | 84.1 µM (inactive) | > 100 µM (inactive) | – | 34.8 µM (inactive) | > 100 µM (inactive) | 46.2 µM (inactive) | 0.656 µM (active) | < 0.01 µM (active) | 20.5 µM (inactive) | 56.1 µM (inactive) | 40.2 µM (inactive) | 47.9 µM (inactive) | – | 48 µM (inactive) | 43.5 µM (inactive) | > 100 µM (inactive) | 79.4 µM (inactive) | –
13 | CN(/N=C/c1ccc(OCc2cccc(COc3ccc(C=O)cc3)n2)cc1)c1cnn(-c2ccc(Cl)cc2Cl)c(=O)c1Cl | > 100 µM (inactive) | 81.8 µM (inactive) | 21.5 µM (inactive) | 62.5 µM (inactive) | > 100 µM (inactive) | > 100 µM (inactive) | > 100 µM (inactive) | > 100 µM (inactive) | > 100 µM (inactive) | > 100 µM (inactive) | > 100 µM (inactive) | > 100 µM (inactive) | 20.2 µM (inactive) | > 100 µM (inactive) | > 100 µM (inactive) | 53.1 µM (inactive) | 17.7 µM (inactive) | > 100 µM (inactive) | > 100 µM (inactive) | –
14 | COc1cc([N+](=O)[O-])c(S(=O)(=O)O)cc1-n1nc(-c2ccccc2)n[n+]1-c1cc(S(=O)(=O)[O-])c([N+](=O)[O-])cc1OC | > 100 µM (inactive) | > 100 µM (inactive) | > 100 µM (inactive) | > 100 µM (inactive) | > 100 µM (inactive) | > 100 µM (inactive) | > 100 µM (inactive) | > 100 µM (inactive) | > 100 µM (inactive) | > 100 µM (inactive) | > 100 µM (inactive) | > 100 µM (inactive) | > 100 µM (inactive) | > 100 µM (inactive) | > 100 µM (inactive) | > 100 µM (inactive) | > 100 µM (inactive) | > 100 µM (inactive) | > 100 µM (inactive) | –
15 | C#C/C=C\CCCC/C=C\C#CC#CCCCC#CC#C[C@H](COS(=O)(=O)O)OS(=O)(=O)O | > 100 µM (inactive) | > 100 µM (inactive) | – | > 100 µM (inactive) | > 100 µM (inactive) | > 100 µM (inactive) | > 100 µM (inactive) | > 100 µM (inactive) | > 100 µM (inactive) | > 100 µM (inactive) | > 100 µM (inactive) | > 100 µM (inactive) | > 100 µM (inactive) | > 100 µM (inactive) | > 100 µM (inactive) | > 100 µM (inactive) | > 100 µM (inactive) | > 100 µM (inactive) | 72.4 µM (inactive) | > 100 µM (inactive)
